# Measurements from publication PMC9695821, “Synthesis and Evaluation of NF-κB Inhibitory Activity of Mollugin Derivatives” (Molecules, 2022).
# Marks after values point to notes of the source that are not given here.
# Experiments:
# xylene-induced ear edema [1] = assay: Xylene-induced ear edema test, deep screening (oral); assay type: in vivo; settings: mice
# Description: In the deep screening, mice were divided into target compound group, positive control group (ibuprofen), and blank group (8 male mice in each group). Target com-pound and ibuprofen were dissolved in sodium carboxymethyl cellulose aqueous solu-tion (sodium carboxymethyl cellulose to water, mass ratio 1:1000); the blank group was sodium carboxymethyl cellulose aqueous solution (sodium carboxymethyl cellu-lose to water, mass ratio 1:1000). The anti-inflammatory activities of each compound in the target compound group, positive control group, and blank group were measured at 1, 2, 3, 4, 6, 9, 12 and 24 h after taking the drug. The experimental operation and calculation method are the same as the initial screening part.
# HeLa cells = assay: MTT cytotoxicity / cell viability assay; assay type: cell-based
# Description: (§1) HeLa cells were inoculated and cultured in 96-well plates. After the cells adhered to the wall, the prepared target compounds with different concentrations were added to all plates for 24 h and then cultured in 5 mg/mL MTT solution for 4 h. The culture solution in the holes was sucked out, and DMSO reagent was added. After the crystallization was fully dissolved, the absorbance at 570 nm was measured by Multiskan GO.
# [2] = MTT cytotoxicity / cell viability assay; assay type: cell-based; settings: human; MTT assay, HeLa cells, 24 h treatment, normoxic conditions; mean, n = 3
# Description: as §1
# xylene-induced ear edema [3] = assay: Xylene-induced ear edema test, initial screening (i.p.); assay type: in vivo; settings: Mus musculus, ip, 0.5 h, mice, n = 6, read-out: Inhibition Rate
# Description: In vivo inhibition test of xylene induced ear edema in mice was performed to evaluate its anti-inflammatory activity.
# In the initial screening, mice (male) were randomly divided into experimental group, positive control drug ibuprofen and Mesalazine group, and blank group. All target compounds were dissolved in dimethyl sulfoxide, and corresponding drugs were intraperitoneally injected into experimental group, positive control group and blank group, respectively. Mice were treated with 100 mg/kg, 0.1 mL/20 g body weight, and control mice received only DMSO (0.1 mL/20 g body weight). After 30 min, 20 μL of xy-lene was evenly applied on both sides of the right ear of the mice. After 30 min of xy-lene was applied, the mice were sacrificed by cutting off their necks. Then the left and right ears of the mice were drilled with a hole punch with a diameter of 7 mm, respec-tively, to obtain two round ear pieces. The degree of swelling (right ear mass–left ear mass) was calculated for each sample, and the swelling inhibition rate of each drug was calculated using the following formula. The inhibition rate of swelling degree (%) = (mean ear swelling degree of mice in blank group […] mean ear swelling degree of mice in target compound group)/mean ear swelling degree of mice in blank group × 100%. The data were processed by GraphPadPrism 5 and expressed as mean data ± SEM. One-way ANOVA method was used for statistical analysis of relevant data. A value of p < 0.05 in the chart indicates significant and statistically significant data dif-ference.
# p65 = assay: Western blot of nuclear extracts, TNF-α-induced p65; assay type: cell-based
# [4] = system: NF-κB transcriptional activity; assay: NF-κB luciferase reporter assay in HeLa cells; assay type: cell-based
# Description: A NF-κB-Luc plasmid for NF-κB luciferase reporter assay was obtained from Strategene (La Jolla, CA, USA). Transfections were performed as previously described. NF-κB-dependent luciferase activity was measured using the Dual-luciferase reporter assay system. Briefly, HeLa cells (1 × 10^5 cells/well) were seeded in a 96-well plate for 24 h. The cells were then transfected with plasmids for each well and then incubated for a transfection period of 24 h. […] Luciferase activity was determined in MicroLumat plus luminometer (EG&G Berthold, Bad Wildbad, Germany) by injecting 100 µL of assay buffer containing luciferin and measuring light emission for 10 s. Co-transfection with pRL-CMV (Promega, Madison, WI, USA), which expresses Renilla luciferase, was performed to enable normalization of data for transfection efficiency.
smiles,measurement,setting,value
"COC(=O)c1c2c(c3ccccc3c1OCC(=O)Nc1ccc3ncccc3c1)OC(C)(C)C=C2 [Compound 6d, Methyl 2,2-dimethyl-6-(2-oxo-2-(quinolin-6-ylamino)ethoxy)-2H-benzo [h] Chromene-5-carboxylate]",Inhibition,"xylene-induced ear edema [1]; 100 mg/kg, time 1 h",25.76% ***
same,Inhibition,"xylene-induced ear edema [1]; 100 mg/kg, time 2 h",33.84% ***
same,Inhibition,"xylene-induced ear edema [1]; 100 mg/kg, time 3 h",41.92% ***
same,Inhibition,"xylene-induced ear edema [1]; 100 mg/kg, time 4 h",52.53% ***
same,Inhibition,"xylene-induced ear edema [1]; 100 mg/kg, time 9 h",37.63% ***
same,Inhibition,"xylene-induced ear edema [1]; 100 mg/kg, time 12 h",31.82% ***
same,Inhibition,"xylene-induced ear edema [1]; 100 mg/kg, time 24 h",25.25% ***
same,Inhibition,"xylene-induced ear edema [1]; dose series, 25 mg/kg, 6 h",41.92% **
same,Inhibition,"xylene-induced ear edema [1]; dose series, 50 mg/kg, 6 h",46.32% ***
same,cell viability,"HeLa cells; 30 µM, 24 h, Figure 2B",did not adversely affect the cell viability
same,IC50 Cytotoxicity,"HeLa cells; MTT assay, 24 h treatment, normoxic conditions, mean, n = 3",did not show any significant cytotoxicity
same,IC50 at 24 h,[2],> 100 µM
same,melting point,,135 to 137 °C
same,inhibition in vivo at 100 mg/kg,xylene-induced ear edema [3],76.8%
same,TNF-α-induced expression of p65,"p65; HeLa cells, 100 µM",inhibited TNF-α-induced expression of p65
same,TNF-α-induced p65 phosphorylation,"p65; HeLa cells, 10, 30, 100 µM for 12 h, then 10 ng/mL TNF-α 30 min, nuclear extracts",significantly inhibited TNF-α-induced p65 phosphorylation in a dose-dependent manner
same,"inhibition of NF-κB luciferase activity, dose dependence",[4]; Figure 2A,dose-dependent inhibition
same,IC50,"[4]; Homo sapiens, NF-κB luciferase reporter, 24 h treatment, hypoxic conditions, mean, n = 3",3.81 µM
